Like-named read-outs stand apart in the source and are kept apart here.
Tested on: T1, NozMT
T1 construct: N-terminal hexahistidine-tagged, codon-optimized synthetic gene in pQE31, E. coli M15(pREP4), Ni-NTA purified
Test: initial rates, HPLC-UV […] nm, Michaelis-Menten fit
Assay type: biochemical, Nocardiopsis sp. CMB-M0232
Conditions: 2 mM SAM, 10 μM enzyme, 40 mM Tris pH 7.5, 200 mM NaCl, 1% DMSO, 37 °C

| Structure (SMILES) | Km (N1' methylation, read-out: apparent average Km) | Km (C3 methylation, read-out: apparent Km) |
| --- | --- | --- |
| CC(C)=CC[C@]12C[C@@H]3C(=O)N[C@H](Cc4c[nH]c5ccccc45)C(=O)N3[C@H]1Nc1ccccc12 [compound 6, cyclo-D-Trp-C3'-prenyl-D-Trp] | 146 µM | – |
| CC(C)=CC[C@]12C[C@@H]3C(=O)N[C@H](Cc4c[nH]c5ccccc45)C(=O)N3[C@H]1N(C)c1ccccc12 [compound 7, cyclo-D-Trp-N1'-methyl-C3'-prenyl-D-Trp] | – | 606 µM |
